Literature values in patent US6720307B2, “Glycosylated analogs of fusidic acid” (The University of Michigan, priority 1996, dated 2004).

Key:
HIV = settings: in vitro
[1] = tested on: methicillin-resistant staphylococci
enterobacteria = settings: all enterobacteria

CC(=O)O[C@H]1C[C@@]2(C)[C@@H](C[C@@H](O)[C@H]3[C@@]4(C)CC[C@@H](O)[C@@H](C)[C@@H]4CC[C@@]32C)/C1=C(\CCC=C(C)C)C(=O)O [fusidic acid, 3α,11α,16β-Trihydroxy-29-nor-8α,9β,13α,14β-dammara-17(20),24-dien-21-oic acid 16-acetate]
efficacy (streptococci): moderate efficacy | susceptibility to fusidic acid (corynebacteria): highly susceptible | efficacy (Nocardia spp.): moderate efficacy | susceptibility to fusidic acid (Clostridium spp.): highly susceptible | susceptibility to fusidic acid (Gram-negative bacilli): resistant | susceptibility to fusidic acid (S. epidermidis): highly susceptible | effectiveness against HIV (HIV): in vitro effectiveness | susceptibility to fusidic acid (fungi): resistant | susceptibility to fusidic acid (Staphylococcus aureus): highly susceptible | susceptibility to fusidic acid [1]: usually susceptible | susceptibility to fusidic acid (Neisseria): susceptible | susceptibility to fusidic acid (Psuedomonas spp.): resistant | efficacy (mycobacteria): moderate efficacy | susceptibility to fusidic acid (Bacteroides spp.): susceptible | susceptibility to fusidic acid (enterobacteria): resistant
